Data on 3 compounds can be found in patent US10870647B2, “Imidazopyridine derivative, method for preparing same, and pharmaceutical composition containing same as active ingredient for preventing or treating cancer” (DAEGU-GYEONGBUK MEDICAL INNOVATION FOUNDATION, priority 2016, dated 2020).

Holding throughout (assay): Kinase selectivity, scanMAX Kinase assay panel (DiscoverX), % control at 1 uM
Format in all cases: binding

For assay [1], the target named is T1, scanMAX Kinase assay panel (Homo sapiens, UniProt Q8NFD2).
T1 construct: purchased DiscoverX
T1 sequence (Q8NFD2 1-765): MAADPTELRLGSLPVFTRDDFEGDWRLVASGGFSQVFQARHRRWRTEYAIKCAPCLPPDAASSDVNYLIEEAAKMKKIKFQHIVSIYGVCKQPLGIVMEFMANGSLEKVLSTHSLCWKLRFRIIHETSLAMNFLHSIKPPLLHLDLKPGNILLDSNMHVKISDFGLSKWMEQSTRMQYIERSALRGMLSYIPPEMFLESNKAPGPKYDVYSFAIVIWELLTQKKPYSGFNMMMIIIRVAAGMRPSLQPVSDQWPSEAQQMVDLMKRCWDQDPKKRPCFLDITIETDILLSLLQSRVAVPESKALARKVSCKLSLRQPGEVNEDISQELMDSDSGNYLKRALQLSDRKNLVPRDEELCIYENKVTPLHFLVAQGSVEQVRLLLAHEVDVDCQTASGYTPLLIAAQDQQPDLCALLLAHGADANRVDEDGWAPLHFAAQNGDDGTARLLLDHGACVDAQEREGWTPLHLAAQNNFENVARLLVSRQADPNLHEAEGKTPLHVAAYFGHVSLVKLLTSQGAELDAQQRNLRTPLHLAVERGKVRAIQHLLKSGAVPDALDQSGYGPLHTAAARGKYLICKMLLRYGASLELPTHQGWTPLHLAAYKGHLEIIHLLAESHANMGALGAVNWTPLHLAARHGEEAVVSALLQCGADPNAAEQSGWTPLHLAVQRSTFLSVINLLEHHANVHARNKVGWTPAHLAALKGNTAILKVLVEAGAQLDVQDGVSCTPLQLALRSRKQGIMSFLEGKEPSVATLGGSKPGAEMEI
As to conditions: ANKK1; 1 uM; read-out: Percent Control (%). Put shortly:
(§1)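 Compounds were tested at 1 uM in DMSO against each enzyme in the panel. Percent control was calculated as (compound − positive control)/(negative control − positive control) × 100, and a compound was scored active on a kinase when this value fell below 35.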

In assay [2] the target is T2, scanMAX Kinase assay panel (Homo sapiens, UniProt Q15759).
T2 construct: purchased DiscoverX
Particulars: p38-beta; 1 uM; read-out: Percent Control (%). The method in brief: as §1

In assay [3] the target is T3, scanMAX Kinase assay panel (Homo sapiens, UniProt Q9P286).
T3 construct: purchased DiscoverX
Particulars: PAK7; 1 uM; read-out: Percent Control (%). The method in brief: as §1

In assay [4] the target is T4, scanMAX Kinase assay panel (Homo sapiens, UniProt P30291).
T4 construct: purchased DiscoverX
T4 sequence (P30291 whole entry): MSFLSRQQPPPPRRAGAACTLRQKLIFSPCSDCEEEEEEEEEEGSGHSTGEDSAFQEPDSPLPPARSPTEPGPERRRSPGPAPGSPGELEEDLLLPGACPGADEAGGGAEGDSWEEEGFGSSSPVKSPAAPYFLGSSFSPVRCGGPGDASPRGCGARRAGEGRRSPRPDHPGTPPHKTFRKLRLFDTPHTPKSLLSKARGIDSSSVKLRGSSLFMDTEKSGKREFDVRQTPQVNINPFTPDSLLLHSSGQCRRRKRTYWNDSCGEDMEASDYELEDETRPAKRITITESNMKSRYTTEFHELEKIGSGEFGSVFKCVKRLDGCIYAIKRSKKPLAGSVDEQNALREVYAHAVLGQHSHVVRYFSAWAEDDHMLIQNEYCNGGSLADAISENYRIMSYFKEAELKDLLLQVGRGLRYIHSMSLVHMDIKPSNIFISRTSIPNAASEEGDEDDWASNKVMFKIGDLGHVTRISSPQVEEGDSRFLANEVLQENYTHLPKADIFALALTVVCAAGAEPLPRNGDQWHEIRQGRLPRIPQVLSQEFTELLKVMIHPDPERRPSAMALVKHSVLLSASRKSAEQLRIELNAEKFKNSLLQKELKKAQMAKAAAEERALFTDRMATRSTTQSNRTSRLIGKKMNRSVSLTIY
As to conditions: WEE1; 1 uM; read-out: Percent Control (%). Put shortly: as §1

For assay [5], the target named is T5, scanMAX Kinase assay panel (Homo sapiens, UniProt Q96PN8).
T5 construct: purchased DiscoverX
T5 sequence (Q96PN8 1-268): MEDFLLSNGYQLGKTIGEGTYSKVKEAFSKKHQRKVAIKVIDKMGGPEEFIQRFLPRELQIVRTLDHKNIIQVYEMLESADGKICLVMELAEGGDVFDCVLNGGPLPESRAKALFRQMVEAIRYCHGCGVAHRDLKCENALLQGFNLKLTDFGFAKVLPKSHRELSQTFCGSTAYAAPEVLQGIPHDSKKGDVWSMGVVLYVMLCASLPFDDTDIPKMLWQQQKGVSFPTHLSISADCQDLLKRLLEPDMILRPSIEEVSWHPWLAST
As to conditions: TSSK3; 1 uM; read-out: Percent Control (%). Put shortly:
as §1

Assay [6] has as its target T6, scanMAX Kinase assay panel (Homo sapiens, UniProt O96017).
T6 construct: purchased DiscoverX
As to conditions: CHEK2; 1 uM; read-out: Percent Control (%). Put shortly: as §1

Assay [7] concerns the target T7, scanMAX Kinase assay panel (Plasmodium falciparum, UniProt P62344).
T7 construct: purchased DiscoverX
Particulars: PFCDPK1 (P. falciparum); 1 uM; read-out: Percent Control (%). Put shortly: as §1

The target of assay [8] is T8, scanMAX Kinase assay panel (Homo sapiens, UniProt P15056, V600E).
T8 construct: purchased DiscoverX
T8 sequence (P15056 whole entry V600E): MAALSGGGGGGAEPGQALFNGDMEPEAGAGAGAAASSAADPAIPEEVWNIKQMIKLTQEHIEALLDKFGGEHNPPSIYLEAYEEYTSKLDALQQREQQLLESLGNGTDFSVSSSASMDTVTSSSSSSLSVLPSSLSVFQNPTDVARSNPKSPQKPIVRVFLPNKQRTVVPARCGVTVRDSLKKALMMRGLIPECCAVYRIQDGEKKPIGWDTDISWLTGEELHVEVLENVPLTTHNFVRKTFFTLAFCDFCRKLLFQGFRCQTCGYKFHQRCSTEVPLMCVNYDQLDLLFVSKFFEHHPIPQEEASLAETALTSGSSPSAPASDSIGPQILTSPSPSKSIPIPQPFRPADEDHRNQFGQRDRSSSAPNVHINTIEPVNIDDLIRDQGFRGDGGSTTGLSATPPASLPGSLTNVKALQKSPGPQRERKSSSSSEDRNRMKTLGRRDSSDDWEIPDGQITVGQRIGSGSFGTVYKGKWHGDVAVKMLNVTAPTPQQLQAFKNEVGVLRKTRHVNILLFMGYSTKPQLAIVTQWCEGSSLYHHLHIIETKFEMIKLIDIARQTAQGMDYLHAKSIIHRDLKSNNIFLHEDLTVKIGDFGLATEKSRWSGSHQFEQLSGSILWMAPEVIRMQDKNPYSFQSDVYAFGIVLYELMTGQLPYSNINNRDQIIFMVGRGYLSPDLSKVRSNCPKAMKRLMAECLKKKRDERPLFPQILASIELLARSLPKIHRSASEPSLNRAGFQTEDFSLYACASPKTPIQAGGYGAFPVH
Particulars: BRAF (V600E); 1 uM; read-out: Percent Control (%). The method in brief:
as §1

The target in assay [9] is T9, scanMAX Kinase assay panel (Homo sapiens, UniProt P45984).
T9 construct: purchased DiscoverX
T9 sequence (P45984 whole entry): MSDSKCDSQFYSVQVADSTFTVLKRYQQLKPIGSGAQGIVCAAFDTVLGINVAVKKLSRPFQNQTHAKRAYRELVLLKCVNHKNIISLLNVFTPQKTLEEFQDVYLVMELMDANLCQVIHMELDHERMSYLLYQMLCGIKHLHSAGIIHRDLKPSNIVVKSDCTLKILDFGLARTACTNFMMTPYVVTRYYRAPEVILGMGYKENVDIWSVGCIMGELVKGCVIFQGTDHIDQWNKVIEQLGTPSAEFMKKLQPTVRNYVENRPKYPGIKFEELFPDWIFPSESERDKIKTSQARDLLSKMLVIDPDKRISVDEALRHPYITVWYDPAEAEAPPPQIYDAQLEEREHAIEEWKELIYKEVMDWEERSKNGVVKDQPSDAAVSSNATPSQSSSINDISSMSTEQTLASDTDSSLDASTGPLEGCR
Particulars: JNK2; 1 uM; read-out: Percent Control (%). The method in brief: as §1

For assay [10], the target named is T10, scanMAX Kinase assay panel (Homo sapiens, UniProt P51617).
T10 construct: purchased DiscoverX
T10 sequence (P51617 whole entry): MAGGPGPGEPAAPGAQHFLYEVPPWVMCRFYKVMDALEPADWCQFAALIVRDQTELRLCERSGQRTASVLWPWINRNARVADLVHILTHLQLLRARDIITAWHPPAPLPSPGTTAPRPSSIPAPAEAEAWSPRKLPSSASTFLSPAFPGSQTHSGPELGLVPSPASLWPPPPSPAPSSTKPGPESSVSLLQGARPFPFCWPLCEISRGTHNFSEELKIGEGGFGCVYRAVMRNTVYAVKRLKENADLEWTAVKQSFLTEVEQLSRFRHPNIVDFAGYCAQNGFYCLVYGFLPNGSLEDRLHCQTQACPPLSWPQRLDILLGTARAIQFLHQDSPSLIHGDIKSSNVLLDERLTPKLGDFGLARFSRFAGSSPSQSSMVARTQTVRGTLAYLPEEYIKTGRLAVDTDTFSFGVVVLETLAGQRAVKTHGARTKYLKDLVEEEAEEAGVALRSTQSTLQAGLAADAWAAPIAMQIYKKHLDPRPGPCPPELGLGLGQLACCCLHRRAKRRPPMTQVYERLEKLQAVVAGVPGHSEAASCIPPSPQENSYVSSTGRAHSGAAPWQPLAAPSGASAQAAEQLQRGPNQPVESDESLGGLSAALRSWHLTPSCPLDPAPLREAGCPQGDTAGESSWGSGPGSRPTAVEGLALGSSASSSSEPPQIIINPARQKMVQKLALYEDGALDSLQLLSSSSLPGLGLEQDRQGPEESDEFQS
Particulars: IRAK1; 1 uM; read-out: Percent Control (%). The method in brief: as §1

Assay [11] concerns the target T11, scanMAX Kinase assay panel (Homo sapiens, UniProt P10721, L576P).
T11 construct: purchased DiscoverX
Particulars: KIT (L576P); 1 uM; read-out: Percent Control (%). The method in brief:
as §1

In assay [12] the target is T12, scanMAX Kinase assay panel (Homo sapiens, UniProt P45983).
T12 construct: purchased DiscoverX
T12 sequence (P45983 whole entry): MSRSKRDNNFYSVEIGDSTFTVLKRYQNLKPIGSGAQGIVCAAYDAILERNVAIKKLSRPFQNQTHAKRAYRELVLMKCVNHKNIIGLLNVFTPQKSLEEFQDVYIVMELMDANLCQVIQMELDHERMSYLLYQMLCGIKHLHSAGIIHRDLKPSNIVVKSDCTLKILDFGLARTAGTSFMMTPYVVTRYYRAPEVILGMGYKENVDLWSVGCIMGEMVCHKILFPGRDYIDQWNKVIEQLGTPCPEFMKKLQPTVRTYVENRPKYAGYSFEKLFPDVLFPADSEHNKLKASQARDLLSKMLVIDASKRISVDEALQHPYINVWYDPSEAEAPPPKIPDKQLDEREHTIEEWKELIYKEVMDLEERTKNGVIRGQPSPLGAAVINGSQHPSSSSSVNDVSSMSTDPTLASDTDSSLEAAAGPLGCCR
As to conditions: JNK1; 1 uM; read-out: Percent Control (%). Put shortly: as §1

Assay [13] concerns the target T13, scanMAX Kinase assay panel (Homo sapiens, UniProt Q9H1R3).
T13 construct: purchased DiscoverX
As to conditions: MYLK2; 1 uM; read-out: Percent Control (%). The method in brief: as §1

The target in assay [14] is T14, scanMAX Kinase assay panel (Homo sapiens, UniProt Q99640).
T14 construct: purchased DiscoverX
T14 sequence (Q99640 1-499): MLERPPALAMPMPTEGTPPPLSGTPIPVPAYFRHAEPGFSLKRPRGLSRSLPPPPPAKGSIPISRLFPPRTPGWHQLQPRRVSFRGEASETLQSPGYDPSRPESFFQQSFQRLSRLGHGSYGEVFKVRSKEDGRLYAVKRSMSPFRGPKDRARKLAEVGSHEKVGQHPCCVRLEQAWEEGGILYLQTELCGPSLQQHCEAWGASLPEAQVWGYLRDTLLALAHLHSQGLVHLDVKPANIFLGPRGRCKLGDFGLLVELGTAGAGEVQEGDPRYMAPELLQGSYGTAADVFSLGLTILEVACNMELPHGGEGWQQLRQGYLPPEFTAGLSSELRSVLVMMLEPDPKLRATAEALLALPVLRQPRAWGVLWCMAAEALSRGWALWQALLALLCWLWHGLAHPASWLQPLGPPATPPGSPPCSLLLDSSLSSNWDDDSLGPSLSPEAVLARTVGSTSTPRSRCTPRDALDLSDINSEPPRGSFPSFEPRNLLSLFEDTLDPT
Particulars: PKMYT1; 1 uM; read-out: Percent Control (%). Put shortly: as §1

T13 sequence (Q9H1R3 whole entry): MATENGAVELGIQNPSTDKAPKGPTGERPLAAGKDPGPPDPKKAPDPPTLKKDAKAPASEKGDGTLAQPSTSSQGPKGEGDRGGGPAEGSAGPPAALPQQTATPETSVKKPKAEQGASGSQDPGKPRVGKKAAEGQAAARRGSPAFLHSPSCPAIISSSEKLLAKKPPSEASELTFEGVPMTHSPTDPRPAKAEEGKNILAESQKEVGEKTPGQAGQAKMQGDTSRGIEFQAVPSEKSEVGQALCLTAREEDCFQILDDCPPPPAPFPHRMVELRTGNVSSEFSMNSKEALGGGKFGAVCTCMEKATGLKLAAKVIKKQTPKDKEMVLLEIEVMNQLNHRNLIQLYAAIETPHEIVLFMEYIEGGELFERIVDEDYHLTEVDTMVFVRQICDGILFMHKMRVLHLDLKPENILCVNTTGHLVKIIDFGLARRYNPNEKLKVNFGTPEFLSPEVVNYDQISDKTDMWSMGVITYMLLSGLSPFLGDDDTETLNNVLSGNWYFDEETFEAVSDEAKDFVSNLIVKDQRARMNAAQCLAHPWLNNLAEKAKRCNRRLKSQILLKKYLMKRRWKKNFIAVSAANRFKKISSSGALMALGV
T11 sequence (P10721 26-976 L576P): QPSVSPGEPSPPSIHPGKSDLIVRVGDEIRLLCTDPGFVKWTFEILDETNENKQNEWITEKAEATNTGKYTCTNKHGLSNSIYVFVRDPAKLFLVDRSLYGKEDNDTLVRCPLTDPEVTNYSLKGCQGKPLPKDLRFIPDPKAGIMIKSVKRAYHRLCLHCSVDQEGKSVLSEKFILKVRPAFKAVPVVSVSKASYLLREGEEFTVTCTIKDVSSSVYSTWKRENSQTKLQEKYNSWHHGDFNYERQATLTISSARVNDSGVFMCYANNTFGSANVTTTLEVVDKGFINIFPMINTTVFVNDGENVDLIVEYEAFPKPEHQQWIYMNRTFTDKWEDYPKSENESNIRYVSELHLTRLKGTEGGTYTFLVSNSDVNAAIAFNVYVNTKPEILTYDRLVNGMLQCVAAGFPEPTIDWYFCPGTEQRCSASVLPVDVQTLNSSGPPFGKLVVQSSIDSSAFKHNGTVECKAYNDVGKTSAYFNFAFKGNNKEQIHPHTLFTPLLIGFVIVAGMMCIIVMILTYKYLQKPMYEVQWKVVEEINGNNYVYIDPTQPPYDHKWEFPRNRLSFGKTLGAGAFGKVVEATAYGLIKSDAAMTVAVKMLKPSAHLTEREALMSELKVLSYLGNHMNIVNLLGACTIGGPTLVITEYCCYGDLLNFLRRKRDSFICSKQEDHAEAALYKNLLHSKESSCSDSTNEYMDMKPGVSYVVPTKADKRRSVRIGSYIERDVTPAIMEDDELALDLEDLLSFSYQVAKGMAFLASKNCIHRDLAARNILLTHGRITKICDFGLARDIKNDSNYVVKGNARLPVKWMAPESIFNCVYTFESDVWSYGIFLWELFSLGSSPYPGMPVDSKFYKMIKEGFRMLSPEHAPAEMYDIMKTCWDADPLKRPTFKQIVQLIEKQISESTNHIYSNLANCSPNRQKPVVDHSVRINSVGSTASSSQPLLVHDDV
T7 sequence (P62344 whole entry): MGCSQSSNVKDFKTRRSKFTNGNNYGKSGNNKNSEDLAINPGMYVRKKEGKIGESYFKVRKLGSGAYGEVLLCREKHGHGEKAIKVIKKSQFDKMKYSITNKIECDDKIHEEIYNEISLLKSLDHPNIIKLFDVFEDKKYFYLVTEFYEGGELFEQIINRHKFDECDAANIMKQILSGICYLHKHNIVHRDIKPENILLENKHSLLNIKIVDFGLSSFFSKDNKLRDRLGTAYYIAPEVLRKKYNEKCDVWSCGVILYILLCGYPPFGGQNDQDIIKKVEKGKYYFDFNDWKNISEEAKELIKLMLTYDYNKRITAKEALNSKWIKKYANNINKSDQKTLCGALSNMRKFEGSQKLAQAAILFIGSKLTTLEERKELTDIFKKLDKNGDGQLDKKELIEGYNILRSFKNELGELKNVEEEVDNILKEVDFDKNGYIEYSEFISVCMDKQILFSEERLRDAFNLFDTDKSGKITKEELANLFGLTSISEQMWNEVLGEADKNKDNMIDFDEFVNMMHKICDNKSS

On to `Cc1ccc(C(=O)Nc2ccc(CN3CCN(C)CC3)c(C(F)(F)F)c2)cc1C#Cc1cnc2c(Nc3cnn(C)c3)cccn12` [Example 1, 4-methyl-3-((8-((1-methyl-1H-pyrazol-4-yl)amino)imidazo[1,2-a]pyridin-3-yl)ethynyl)-N-(4-((4-methylpiperazin-1-yl)methyl)-3-(trifluoromethyl)phenyl)benzamide], for which the remaining binding at 1 µM in assay [1] was 4%; in [2], 0%; in assay [3] it was 100%; in assay [4] it was 92%; in [5] it was 95%; in assay [6] it was 34%. Moreover, the remaining binding at 1 µM in [7] worked out at 1%; in assay [8], 5%; in assay [9], 0%; in assay [10], 6%; in [11], 0%; in assay [12], 4%. Besides, the remaining binding at 1 µM in assay [13] turned out to be 6%; in [14], 93%.
Turning to `Cc1ccc(NC(=O)C2(C(=O)Nc3ccc(F)cc3)CC2)cc1C#Cc1cnc2c(Nc3cnn(C(C)C)c3)cccn12` [Example 78], the remaining binding at 1 µM came to 97% in assay [1]; 88% in [2]; 100% in assay [3]; 100% in assay [4]; 100% in [5]; 91% in assay [6]. Also, the remaining binding at 1 µM in assay [7] is 97%; in assay [8], 100%; in assay [9], 100%; in [10], 100%; in assay [11] it was 0%; in [12], 99%. For the same compound, the remaining binding at 1 µM in assay [13] worked out at 100%; in assay [14], 90%.
Regarding `Cc1cn(-c2cc(NC(=O)c3ccc(C)c(C#Cc4cnc5c(Nc6cnn(C)c6)cccn45)c3)cc(C(F)(F)F)c2)cn1` [Example 12, 4-methyl-N-(3-(4-methyl-1H-imidazol-1-yl)-5-(trifluoromethyl)phenyl)-3-((8-((1-methyl-1H-pyrazol-4-yl)amino)imidazo[1,2-a]pyridin-3-yl)ethynyl)benzamide], the remaining binding at 1 µM in assay [1] was 100%; in [2], 6%; in [3], 100%; in assay [4], 90%; in assay [5], 100%; in assay [6], 84%. Besides, the remaining binding at 1 µM in assay [7] was 55%; in assay [8], 56%; in assay [9], 66%; in assay [10] it was 100%; in [11], 17%; in assay [12] it was 63%. Further, the remaining binding at 1 µM was 40% in assay [13] and 98% in [14].
